25 compounds from patent US20220213055A1, “SUBSTITUTED (PIPERIDIN-1-YL)ARYL ANALOGUES FOR MODULATING AVIL ACTIVITY” (University of Virginia Patent Foundation, priority 2019, published 2022) can be followed below.

Where two headings read alike, the source gives them in different places.

What is called IC50 is the point on the concentration scale where inhibition reaches its midpoint.

Holding throughout (format): cell-based
In assay [1] the test system is Immortalized human astrocytes. The assay can be described thus: MTT cell viability assay, astrocytes (non-cancer control). Conditions: immortalized human astrocytes, MTT after three days. As to the method:
(§1) Different concentration of compounds were added to the cells. Three days later, a MTT assay (Sigma) was performed to monitor cell viability.
(§2) In this example, samples of glioblastoma cells (U87) and astrocyte cells (non-cancer control) were exposed various disclosed compounds to determine the effectiveness of the compounds for inhibiting cell growth.
A general note: Tetrazolium assays rely on reduction of a dye to a coloured formazan, in cell work by metabolically active cells.

The subject of assay [2] is Glioblastoma cell line U87 cells. The assay can be described thus: MTT cell viability assay, glioblastoma cells. Conditions: U87 glioblastoma cells, MTT after three days. As to the method:
as §1, §2

The target of assay [3] is T1, AVIL protein binding to actin (Homo sapiens, UniProt O75366).
T1 construct: expressed in transfected cells; host or cells: 293T cells
T1 sequence (O75366 1-819): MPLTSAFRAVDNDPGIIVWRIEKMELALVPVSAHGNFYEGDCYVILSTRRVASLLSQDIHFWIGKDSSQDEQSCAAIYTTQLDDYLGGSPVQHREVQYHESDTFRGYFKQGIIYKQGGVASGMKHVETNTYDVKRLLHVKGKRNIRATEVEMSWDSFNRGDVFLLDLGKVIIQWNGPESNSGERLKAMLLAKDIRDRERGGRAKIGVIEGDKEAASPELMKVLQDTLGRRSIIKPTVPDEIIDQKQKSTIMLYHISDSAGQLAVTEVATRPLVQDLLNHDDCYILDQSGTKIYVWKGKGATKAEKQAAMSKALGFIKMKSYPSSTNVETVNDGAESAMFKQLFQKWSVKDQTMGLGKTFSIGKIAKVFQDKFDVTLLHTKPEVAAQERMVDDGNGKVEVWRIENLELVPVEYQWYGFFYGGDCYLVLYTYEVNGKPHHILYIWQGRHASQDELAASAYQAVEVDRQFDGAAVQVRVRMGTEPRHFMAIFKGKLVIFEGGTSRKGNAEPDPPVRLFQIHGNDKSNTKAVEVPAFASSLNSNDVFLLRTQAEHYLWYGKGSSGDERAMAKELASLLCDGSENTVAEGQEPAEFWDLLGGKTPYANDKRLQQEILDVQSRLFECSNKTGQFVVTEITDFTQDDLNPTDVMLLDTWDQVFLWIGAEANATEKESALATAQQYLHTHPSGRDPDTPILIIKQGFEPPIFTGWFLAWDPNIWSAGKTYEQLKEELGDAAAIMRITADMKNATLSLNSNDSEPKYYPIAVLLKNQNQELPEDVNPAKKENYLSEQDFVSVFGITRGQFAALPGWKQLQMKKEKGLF
In words: Immunoprecipitation (MYC antibody) and Western blot (β-actin antibody) in 293T cells transfected with MYC tagged AVIL. Conditions: IC50 dose, 24 hrs, FIGS. 2A and 2B. As to the method:
293T cells were first transfected with MYC tagged AVIL. After 24 hrs, the cells were treated with the IC50 dose of the five compounds for 24 hrs. Immunoprecipitation was performed with MYC antibody, and Western blot was performed with β-actin antibody.
293T cells were first transfected with MYC tagged AVIL as follows: transfect pQCXIH-myc-AVIL plasmid in 6 well plate of 293T for 48 hrs. 200 ul opti-medium+7 ul GeneCellin (Polyplus transfection Co.)+4 ug plasmids in each well. Transfected AVIL cells were treated with the IC50 dose of the test compounds for 24 hrs. Protein extract was then prepared on ice by adding 1 ml IP lysis buffer+protease inhibitor+cocktail+PMSF, and let stand on ice for 30 min. Cells were then scraped into EP tubes and sonicated continuously for 5 sec with power setting 3. Tubes were then centrifuged in 4° C. at 13000 rpm for 20 min, and the upper aqueous phase was then transferred to pre-chilled tubes. Protein concentration was then determined using Bio-Rad protein assay. Preclear cell extracts were treated with 50 ul ProteinG/Sepharose per my lysate for 1 hr. Then 500 ug precleared cell extracts were taken and adjusted to 500 ul with lysis buffer for 2 ug myc antibody or IgG control and incubated at 4° C. overnight. Then, 25 ul ProteinG/Sepharose beads were added and incubated at 4° C. overnight. Beads were then washed four times with 1 ml IP wash buffer for 3 min, and spun at 1000 rpm to pellet beads. All wash buffer was removed with pipette, and 20 ul 2×SDS loading buffer was added and then boiled at 95° C. for 10 min to denature. This was centrifuged at 12000 rpm for 30 sec., and the supernatant was then transferred to a fresh tube and load for SDS-PAGE.
Western blot was performed with R-actin antibody. To measure protein levels, cell lysates were resolved by denaturing gel electrophoresis, before electrotransfer to a Protran nitrocellulose membrane. The membrane was subjected to western blot analysis with antibodies against the proteins of interest. The following antibodies and dilutions were used: rabbit anti-AVIL (1:2000; Sigma SAB2100191).
Background: A western blot detects proteins with antibodies after separation by electrophoresis.

The subject of a further assay is LIN28B. In words: LIN28B gene expression by qRT-PCR in U87 cells. As to conditions: IC50 concentration, relative to GAPDH, FIG. 3. Here is the method: U87 cells were treated at the IC50 concentration of the five test compounds. Cells were harvested. RNA was extracted using TRIzol reagent (Invitrogen) and quantified with Nanodrop (Thermo). cDNA was generated by AMV-RT kit (NEB), and a random hexamer primer. Real-time qPCR was carried out on the StepOne Plus system from Applied Biosystems using SYBR mix (Thermo). LIN28B expression was measured by qRT-PCR and is represented relative to GAPDH levels. […] The following primers were used for […] and GAPDH amplifications: […]
A general note: In qPCR the cycle at which signal appears reflects the starting amount.

`Nc1nccc(N2CCCC(CO)(CCCc3ccccc3)C2)n1` (stereo not shown) [PLH1215, (1-(2-Aminopyrimidin-4-yl)-3-(3-phenylpropyl)piperidin-3-yl)methanol]: the IC50 in assay [1] (Homo sapiens, Astrocyte, 72 h) was greater than 80 µM; in assay [2] (Homo sapiens, U-87 MG, 72 h), roughly 11.7 µM.
For `CS(=O)(=O)OCC1(CCCc2ccccc2)CCCN(c2ccnc(N)n2)C1` (stereo not shown) [PLH1224], in that order: greater than 80 µM and roughly 50 µM.
For `CCOC(=O)C1(CCCc2ccccc2)CCCN(C(=O)OC(C)(C)C)C1` (stereo not shown) [PLH1225], in that order: greater than 80 µM and roughly 15 µM.
For `COc1nc(OC)nc(N2CCCC(CO)(CCCc3ccccc3)C2)n1` (stereo not shown) [PLH1230, (1-(4,6-Dimethoxy-1,3,5-triazin-2-yl)-3-(3-phenylpropyl)piperidin-3-yl)methanol], in that order: greater than 80 µM and 63.6 µM.
Turning to `Cc1nccnc1N1CCCC(CO)(CCCc2ccccc2)C1` (stereo not shown) [PLH1234, (1-(3-Methylpyrazin-2-yl)-3-(3-phenylpropyl)piperidin-3-yl)methanol], the IC50 in assay [1] (Homo sapiens, Astrocyte, 72 h) stood at 51.8 µM; in assay [2] (Homo sapiens, U-87 MG, 72 h) it was 20 µM.
Taken in the same sequence, the figures for `O=C(c1sc2cc(F)ccc2c1Cl)N1CCCC(CO)(CCCc2ccccc2)C1` (stereo not shown) [PLH1254] were 49 µM and 16 µM.
Turning to `Nc1nc(N)nc(N2CCCC(CO)(CCCc3ccccc3)C2)n1` (stereo not shown) [PLH1258, (1-(4,6-Diamino-1,3,5-triazin-2-yl)-3-(3-phenylpropyl)piperidin-3-yl)methanol], the IC50 in assay [1] (Homo sapiens, Astrocyte, 72 h) was greater than 80 µM; in assay [2] (Homo sapiens, U-87 MG, 72 h) it was 3.6 µM.
As for `CC(C)(C)OC(=O)N1CCCC(C(=O)NCc2ccccc2)C1` (stereo not shown) [PLH1273], the IC50 in assay [1] (Homo sapiens, Astrocyte, 72 h) was greater than 80 µM; in assay [2] (Homo sapiens, U-87 MG, 72 h), greater than 80 µM.
In the case of `Cc1nc(N(C)C)nc(N2CCCC(CO)(CCCc3ccccc3)C2)c1C` (stereo not shown) [PLH1276, (1-(2-(Dimethylamino)-5,6-dimethylpyrimidin-4-yl)-3-(3-phenylpropyl)piperidin-3-yl)methanol], the IC50 was greater than 80 µM in assay [1] (Homo sapiens, Astrocyte, 72 h) and 19 µM in assay [2] (Homo sapiens, U-87 MG, 72 h).
For `Cc1c(Cl)ncnc1N1CCCC(CO)(CCCc2ccccc2)C1` (stereo not shown) [PLH1279, (1-(6-Chloro-5-methylpyrimidin-4-yl)-3-(3-phenylpropyl)piperidin-3-yl)methanol], in that order: greater than 80 µM and 8 µM.
For the compound `Nc1nccc(N2CCCC(C(=O)NCCc3ccccc3)C2)n1` (stereo not shown) [PLH1285, 1-(2-Aminopyrimidin-4-yl)-N-phenethylpiperidine-3-carboxamide], the IC50 in assay [1] (Homo sapiens, Astrocyte, 72 h) is greater than 80 µM; in assay [2] (Homo sapiens, U-87 MG, 72 h), 17 µM.
For `Nc1nccc(N2CCCC(C(=O)NCc3ccccc3)C2)n1` (stereo not shown) [PLH1290, 1-(2-Aminopyrimidin-4-yl)-N-benzylpiperidine-3-carboxamide], in that order: greater than 80 µM and greater than 80 µM.
Taken in the same sequence, the figures for `OCC1(CCCc2ccccc2)CCCN(c2ccccn2)C1` (stereo not shown) [PLH1291, (3-(3-Phenylpropyl)-1-(pyridin-2-VI)piperidin-3-VI)methanol] were greater than 80 µM and 14 µM.
For `O=Cc1c(Cl)ncnc1N1CCCC(CO)(CCCc2ccccc2)C1` (stereo not shown) [PLH1293], the IC50 is 18 µM in assay [1] (Homo sapiens, Astrocyte, 72 h) and 8 µM in assay [2] (Homo sapiens, U-87 MG, 72 h).
With `COc1c(Cl)ncnc1N1CCCC(CO)(CCCc2ccccc2)C1` (stereo not shown) [PLH1302, (1-(6-Chloro-5-methoxypyrimidin-4-yl)-3-(3-phenylpropyl)piperidin-3-yl)methanol], the 50% inhibitory concentration (IC50) in assay [1] (Homo sapiens, Astrocyte, 72 h) was roughly 20 µM; in assay [1] (read-out: IC50 (astrocyte)), 10 µM; in assay [2] (Homo sapiens, U-87 MG, 72 h), roughly 2.5 µM; in assay [2], 2.3 µM.
Turning to `Nc1nccc(N2CCCC(CO)(CCc3ccccc3)C2)n1` (stereo not shown) [PLH1304, (1-(2-Aminopyrimidin-4-yl)-3-phenethylpiperidin-3-yl)methanol], the IC50 in assay [1] (Homo sapiens, Astrocyte, 72 h) was roughly 80 µM; in assay [2] (Homo sapiens, U-87 MG, 72 h), 3.83 µM.
For `CCc1ncnc(N2CCCC(CO)(CCCc3ccccc3)C2)c1F` (stereo not shown) [PLH2002, (1-(6-Ethyl-5-fluoropyrimidin-4-yl)-3-(3-phenylpropyl)piperidin-3-yl)methanol], in that order: 1.1 µM and 1.5 µM.
For `Nc1ccnc(N2CCCC(CO)(CCCc3ccccc3)C2)n1` (stereo not shown) [PLH2006, (1-(4-Aminopyrimidin-2-yl)-3-(3-phenylpropyl)piperidin-3-yl)methanol], in that order: greater than 80 µM and greater than 80 µM.
In the case of `Nc1nccc(N2CCCC(COCc3ccccc3)C2)n1` (stereo not shown) [PLH2027, 4-(3-((Benzyloxy)methyl)piperidin-1-yl)pyrimidin-2-amine], the IC50 is roughly 80 µM in assay [1] (Homo sapiens, Astrocyte, 72 h) and roughly 50 µM in assay [2] (Homo sapiens, U-87 MG, 72 h).
For `Nc1nccc(N2CCC[C@H](COCc3ccccc3)C2)n1` [PLH2032, (S)-4-(3-((Benzyloxy)methyl)piperidin-1-yl)pyrimidin-2-amine], in that order: roughly 40 µM and 4.3 µM.
Turning to `Nc1nccc(N2CCC[C@@H](COCc3ccccc3)C2)n1` [PLH2040, (R)-4-(3-((Benzyloxy)methyl)piperidin-1-yl)pyrimidin-2-amine], the concentration for half-maximal inhibition (IC50) was greater than 80 µM in assay [1] (Homo sapiens, Astrocyte, 72 h) and 2.8 µM in assay [2] (Homo sapiens, U-87 MG, 72 h).
Turning to `OCC1(CCCc2ccccc2)CCCN(c2ccncn2)C1` (stereo not shown) [PLH2062, (3-(3-Phenylpropyl)-1-(pyrimidin-4-VI)piperidin-3-yl)methanol], the IC50 is greater than 80 µM in assay [1] (Homo sapiens, Astrocyte, 72 h) and roughly 30 µM in assay [2] (Homo sapiens, U-87 MG, 72 h).
Regarding `Cc1c(-c2ccccc2)ncnc1N1CCCC(CO)(CCCc2ccccc2)C1` (stereo not shown) [PLH2063, (1-(5-methyl-6-phenylpyrimidin-4-yl)-3-(3-phenylpropyl)piperidin-3-yl)methanol], the IC50 in assay [1] (Homo sapiens, Astrocyte, 72 h) is roughly 80 µM; in assay [2] (Homo sapiens, U-87 MG, 72 h) it was roughly 80 µM.
For `c1ccc(COCC2CCCN(c3ncnc4ccccc34)C2)cc1` (stereo not shown) [PLH2069, 4-(3-((Benzyloxy)methyl)piperidin-1-yl)quinazoline], in assay [3], the “disruption of AVIL protein binding to actin” value is reported as “disruption of AVIL protein binding to actin”. The “down-regulation of LIN28B gene expression” value with LIN28B is recorded as “down-regulation of LIN28B gene expression”.
In the case of `OCC1(CCCc2ccccc2)CCCN(c2ncnc3cc(Cl)ccc23)C1` (stereo not shown) [PLH2074, (1-(7-Chloroquinazolin-4-yl)-3-(3-phenylpropyl)piperidin-3-yl)methanol], the IC50 is roughly 15 µM in assay [1] (Homo sapiens, Astrocyte, 72 h) and roughly 2 µM in assay [2] (Homo sapiens, U-87 MG, 72 h).
